Test results: BindingDB's records for doi:10.1016/S0960-894X(97)00219-9 (1997)

Molecular target: T1, Cysteinyl leukotriene receptor 1 (Cavia porcellus, UniProt Q2NNR5)
T1 sequence (Q2NNR5 whole entry): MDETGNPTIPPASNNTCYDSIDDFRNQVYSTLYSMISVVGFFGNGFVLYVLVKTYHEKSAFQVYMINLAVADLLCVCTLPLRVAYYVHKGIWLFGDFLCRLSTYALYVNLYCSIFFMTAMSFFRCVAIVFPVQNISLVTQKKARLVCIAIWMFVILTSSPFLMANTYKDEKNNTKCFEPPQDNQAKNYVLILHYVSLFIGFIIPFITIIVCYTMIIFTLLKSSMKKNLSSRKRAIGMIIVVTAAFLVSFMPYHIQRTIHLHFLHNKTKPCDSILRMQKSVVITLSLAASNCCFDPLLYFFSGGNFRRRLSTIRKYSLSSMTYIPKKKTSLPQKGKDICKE
Test: ChEBML_52039
Method: Dissociation constant for CysLT1 receptor was determined by the displacement of [3H]LTD4 from guinea pig lung membranes

In the case of COc1cc(C(=O)NS(=O)(=O)c2ccccc2)ccc1Cn1ncc2ccc(NC(=O)OC3CCCC3)cc21, the Kd is reported as 30.1 µM.
